Measurements from PubChem BioAssay (NCI).
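Assay format: 96-well plates, 48-hour exposure. TGI is the concentration that stops growth completely.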

Experiments:
Assay in all cases: NCI anticancer screen, dose series, 48 h
PC-3 prostate = test system: PC-3 prostate
CAKI-1 renal = test system: CAKI-1 renal
SK-MEL-28 melanoma = test system: SK-MEL-28 melanoma
M14 melanoma = test system: M14 melanoma
SK-MEL-5 melanoma = test system: SK-MEL-5 melanoma
SNB-75 CNS = test system: SNB-75 CNS
OVCAR-3 ovarian = test system: OVCAR-3 ovarian
SW-620 colon = test system: SW-620 colon
DU-145 prostate = test system: DU-145 prostate
HT29 colon = test system: HT29 colon
SF-539 CNS = test system: SF-539 CNS

Compound	TGI (PC-3 prostate)	TGI (CAKI-1 renal)	TGI (SK-MEL-28 melanoma)	TGI (M14 melanoma)	TGI (SK-MEL-5 melanoma)	TGI (SNB-75 CNS)	TGI (OVCAR-3 ovarian)	TGI (SW-620 colon)	TGI (DU-145 prostate)	TGI (HT29 colon)	TGI (SF-539 CNS)
N#CC1C(=O)Nc2sc(C(=O)c3ccc(Br)cc3)c(N)c2C12CCCCC2 (centres undefined)	57.1 µM	> 100 µM	47.7 µM	39 µM	32.5 µM	> 100 µM	52.7 µM	69.4 µM	> 100 µM	> 100 µM	42.6 µM
CC1(C)OCC2OC3([C@H](O)CCO)OC(C)(C)OC3C2O1 (some centres undefined)	> 100 µM	> 100 µM	> 100 µM	> 100 µM	> 100 µM	> 100 µM	> 100 µM	> 100 µM	> 100 µM	> 100 µM	> 100 µM
CCOC(=O)CCC(NC(=O)c1ccc(CNc2nc3cc(N)cc(N)c3nc2-c2ccccc2)cc1)C(=O)OCC (centres undefined)	> 100 µM	> 100 µM	66.6 µM	> 61.6 µM	> 100 µM	> 100 µM	> 100 µM	> 100 µM	> 100 µM	> 100 µM	> 100 µM
OC(c1cccs1)c1cc2ccccc2s1 (centres undefined)	> 10 µM	> 10 µM	> 10 µM	> 10 µM	> 10 µM	> 10 µM	> 10 µM	> 10 µM	> 10 µM	> 10 µM	> 10 µM
O=[N+]([O-])c1ccc(Cl)cc1C1ON=C(c2ccccc2)N1C12CC3CC(CC(C3)C1)C2 (centres undefined)	> 100 µM	> 100 µM	> 100 µM	> 100 µM	> 100 µM	> 100 µM	> 100 µM	–	> 100 µM	> 100 µM	> 100 µM
C#CC(O)/C=C/CCCCCCC#CC/C=C\CC#CCCCCCC/C=C/C(O)C#C (centres undefined)	24.4 µM	5.98 µM	4.58 µM	2.26 µM	3.14 µM	20.9 µM	7.99 µM	7.3 µM	8.99 µM	6.86 µM	41.2 µM
N[C@@H]1c2c(Br)sc(Br)c2[C@H](O)[C@@H]1O	> 100 µM	> 100 µM	> 100 µM	> 100 µM	> 100 µM	> 100 µM	> 100 µM	> 100 µM	> 100 µM	> 100 µM	> 100 µM
CCOC(OCC)C(CC)[Se]c1ccccc1[N+](=O)[O-] (centres undefined)	> 100 µM	88.8 µM	> 100 µM	15.3 µM	30.9 µM	> 100 µM	6.56 µM	> 100 µM	> 100 µM	7.31 µM	5.61 µM
Cc1cccc(-c2cc(=O)c3ccc(C)nc3[nH]2)c1	> 82.9 µM	> 100 µM	> 100 µM	> 100 µM	15.4 µM	49.2 µM	0.503 µM	–	> 56.9 µM	1.82 µM	14.6 µM
O=c1c2cc(Br)ccc2oc2nc3n(c(=O)c12)CCCS3	> 100 µM	> 100 µM	> 100 µM	> 100 µM	> 100 µM	> 100 µM	> 100 µM	> 100 µM	> 100 µM	–	> 100 µM
COC(=O)C(NC(=O)CNC(=O)CSc1nnc(COc2ccc(Cl)cc2)n1-c1ccccc1)C(C)C (centres undefined)	33 µM	28.2 µM	31.1 µM	38.5 µM	30 µM	37.5 µM	31.6 µM	38.2 µM	35.2 µM	35.3 µM	31.9 µM
FC(F)(F)c1ccc2c(c1)nc(Cc1ccccc1)n2C[C@@H]1CCCN2CCCCC12 (some centres undefined)	28.5 µM	31.1 µM	32.3 µM	23 µM	29.6 µM	29.9 µM	28 µM	> 65.7 µM	29.3 µM	26.8 µM	35.6 µM
COC(=O)[C@H]1[C@H](C(=O)OC)[C@@H](C)c2c(ccc3c2[nH]c2ccccc23)[C@@H]1C	> 100 µM	> 100 µM	> 100 µM	> 100 µM	> 100 µM	68.7 µM	> 100 µM	> 100 µM	> 100 µM	> 100 µM	> 100 µM
C[n+]1c2ccccc2c(CNC(CCC(N)=O)C(=O)O)c2ccccc21 (centres undefined)	10.8 µM	7.53 µM	12.1 µM	12.2 µM	10.5 µM	12.5 µM	6.78 µM	1.95 µM	11.4 µM	7.01 µM	5.61 µM
COc1ccc(-c2cc(-c3ccc(Nc4ccnc5cc(C(F)(F)F)ccc45)cc3)[nH]c(=O)c2C#N)c2ccccc12	> 100 µM	> 100 µM	> 100 µM	> 70.7 µM	> 100 µM	29.9 µM	> 100 µM	> 100 µM	> 83.7 µM	> 74.2 µM	> 53.7 µM
COC1=CC(=O)C(O)=C(C[C@@]2(C)[C@@H]3CCC[C@H](COC(=O)CCCCCNC(=O)OC(C)(C)C)[C@@]3(C)CC[C@@H]2C)C1=O	> 10 µM	> 10 µM	> 10 µM	> 10 µM	> 10 µM	> 10 µM	> 10 µM	> 10 µM	> 10 µM	> 10 µM	–
O=C(O)c1c(CC(Cc2ccc3c(c2)CCCC3)C(=O)O)ccc2c1CCCC2 (centres undefined)	> 100 µM	> 100 µM	> 100 µM	> 100 µM	> 100 µM	> 100 µM	> 100 µM	> 100 µM	> 100 µM	> 100 µM	> 100 µM
CCCn1cnc2c(NN=O)ncnc21	> 100 µM	> 100 µM	> 100 µM	> 100 µM	> 100 µM	> 100 µM	> 100 µM	> 100 µM	> 100 µM	> 100 µM	> 100 µM
Oc1ccc2c(c1)OCC(O)(c1ccccc1O)C2 (centres undefined)	> 100 µM	> 100 µM	> 100 µM	> 100 µM	> 100 µM	> 100 µM	> 100 µM	> 100 µM	> 100 µM	> 100 µM	> 100 µM
C=CCN1C(=O)/C(=C/c2ccc(C)cc2)N=C1SC/C=C/C	> 100 µM	> 100 µM	> 100 µM	> 100 µM	44.6 µM	70.1 µM	> 100 µM	> 100 µM	> 100 µM	> 100 µM	> 100 µM

Compound	TGI (PC-3 prostate)	TGI (CAKI-1 renal)	TGI (SK-MEL-28 melanoma)	TGI (M14 melanoma)	TGI (SK-MEL-5 melanoma)	TGI (SNB-75 CNS)	TGI (OVCAR-3 ovarian)	TGI (SW-620 colon)	TGI (DU-145 prostate)	TGI (HT29 colon)	TGI (SF-539 CNS)
Clc1ccc(OCc2nnc3sc(-c4ccc(-c5ccc(Cl)cc5Cl)o4)nn23)c(Cl)c1	33.1 µM	86.2 µM	60.9 µM	76.5 µM	44.4 µM	34.1 µM	34 µM	> 100 µM	66.8 µM	51.1 µM	32.2 µM
COc1nn(Cc2ccccc2F)c2ccc([N+](=O)[O-])cc12	> 100 µM	> 100 µM	> 100 µM	> 100 µM	> 100 µM	> 100 µM	> 100 µM	> 100 µM	> 100 µM	> 100 µM	> 100 µM
N#Cc1c(=O)c2cc([N+](=O)[O-])ccc2n2c1[nH]c1ccccc12	> 100 µM	> 92 µM	> 64.8 µM	> 64.6 µM	28.3 µM	> 100 µM	> 55.7 µM	> 100 µM	> 100 µM	> 87.9 µM	> 100 µM
COC1(OC)N=C(N)C2(C#N)C(C)CC(=O)N(N(C)C)C12C#N (centres undefined)	> 100 µM	> 100 µM	> 100 µM	> 100 µM	> 100 µM	> 100 µM	–	> 100 µM	> 100 µM	> 100 µM	> 100 µM
O=C1Oc2ccccc2C(=O)/C1=C/N1C(=O)/C(=C/c2ccc([N+](=O)[O-])cc2)SC1=S	61.7 µM	51.3 µM	85.7 µM	65.6 µM	46.4 µM	54.3 µM	5.85 µM	> 100 µM	> 100 µM	> 100 µM	45 µM
CC(C)CCCC(C)[C@H]1CC[C@H]2[C@@H]3CC[C@H]4C[C@@H](CCC=C(c5cc(Cl)c(O)c(C(=O)OC(C)(C)C)c5)c5cc(Cl)c(O)c(C(=O)OC(C)(C)C)c5)CC[C@]4(C)[C@H]3CC[C@]12C (some centres undefined)	> 50 µM	> 50 µM	> 50 µM	> 50 µM	> 50 µM	> 50 µM	> 50 µM	> 50 µM	> 50 µM	> 50 µM	> 50 µM
O=C1CN(c2ccc(Cl)cc2)C(=O)CN1CCN1CC(=O)N(c2ccc(Cl)cc2)CC1=O	> 100 µM	> 100 µM	> 100 µM	> 100 µM	> 100 µM	> 100 µM	> 100 µM	> 100 µM	> 100 µM	> 100 µM	–
CCOC(=O)CCC(C(=O)OCC)n1nc2ccc(Nc3c(C)[n+]([O-])c4cc(Cl)ccc4[n+]3[O-])cc2n1 (centres undefined)	> 100 µM	> 100 µM	–	> 100 µM	> 100 µM	> 100 µM	> 100 µM	> 100 µM	> 100 µM	> 100 µM	> 100 µM
CCCCCCCCCCCCCCCCCCNc1ccn(C2OC(COP(=O)(O)O)C(O)C2O)c(=O)n1 (centres undefined)	> 100 µM	> 100 µM	> 100 µM	> 100 µM	> 100 µM	> 100 µM	> 100 µM	> 100 µM	> 100 µM	> 100 µM	> 100 µM
c1ccc2c(c1)CCc1c-2n(CCN2CCCCC2)c2ccccc12	27.1 µM	52.3 µM	50.9 µM	29.7 µM	12.9 µM	49.1 µM	31.1 µM	50.1 µM	> 100 µM	22.8 µM	26.6 µM
COC(=O)NCCc1[nH]nc2c1C(=O)C=C(OC)C2=O	95.8 µM	45.5 µM	35.3 µM	33.9 µM	28.9 µM	40.2 µM	32 µM	43.9 µM	> 100 µM	> 100 µM	33.5 µM
Oc1[nH]c2ccccc2c1N=NC1=NCCCCN1	> 100 µM	> 100 µM	–	> 100 µM	> 100 µM	> 100 µM	> 100 µM	> 100 µM	> 100 µM	> 100 µM	> 100 µM
NC(=O)c1n[nH]n(-c2ccccc2)c1=O	> 100 µM	> 100 µM	> 100 µM	> 100 µM	> 100 µM	> 100 µM	> 100 µM	> 100 µM	> 100 µM	> 100 µM	> 100 µM
Oc1ccc(-c2nc3cc(C(F)(F)F)ccc3n2CC2CCCN3CCCCC23)cc1 (centres undefined)	27.1 µM	38.8 µM	29.6 µM	32.3 µM	27.7 µM	32.4 µM	27 µM	28.4 µM	36.1 µM	34.7 µM	34.6 µM
COC(=O)c1ccc2n1C1CC3CC(CC2C3)C1	> 100 µM	> 100 µM	> 100 µM	> 100 µM	> 100 µM	> 100 µM	> 100 µM	> 100 µM	> 100 µM	> 100 µM	> 100 µM
CC1=C(C2=C(C)C(=O)C(=O)c3cc(C)ccc32)c2ccc(C)cc2C(=O)C1=O	1.04 µM	0.328 µM	–	0.349 µM	0.374 µM	0.868 µM	0.323 µM	–	2.84 µM	0.705 µM	0.346 µM
C=C(C)CCC1CCCCC(CN(C)C)C1=O (centres undefined)	> 100 µM	> 100 µM	> 100 µM	> 100 µM	> 100 µM	> 100 µM	> 100 µM	> 100 µM	> 100 µM	> 100 µM	> 100 µM
Oc1cc(Cl)cc2cc(Br)cnc12	> 100 µM	> 27.3 µM	> 100 µM	6 µM	3.24 µM	> 100 µM	7.9 µM	> 100 µM	> 100 µM	> 100 µM	> 100 µM
CC(C)(C)c1cc(-c2ccc(-c3cc(C(C)(C)C)c(O)c(C(C)(C)C)c3)cc2)cc(C(C)(C)C)c1O	> 100 µM	> 100 µM	> 100 µM	> 100 µM	> 100 µM	> 100 µM	> 100 µM	> 100 µM	> 100 µM	> 100 µM	> 100 µM
